From the supplement of paper PMC13380429

Assays:
Conditions in all cases: 72 h
U2OS [1] = assay: drug sensitivity score (DSS) for viability; higher = more toxic; extreme values may be limits of the assay
Caco-2 [2] = assay: as above
Calu-3 [3] = assay: as above
HepG2 [4] = assay: as above
Vero E6 [5] = assay: as above
U2OS [6] = assay: cell viability relative to DMSO; higher = less toxic
Caco-2 [7] = assay: as above
Calu-3 [8] = assay: as above
HepG2 [9] = assay: as above
Vero E6 [10] = assay: as above
U2OS [11] = assay: relative viability EC50 (midpoint between 100% and the lowest measured viability); higher = less toxic
Caco-2 [12] = assay: as above
Calu-3 [13] = assay: as above
HepG2 [14] = assay: as above
Vero E6 [15] = assay: as above

Row | SMILES | drug sensitivity score (U2OS [1]) | drug sensitivity score (Caco-2 [2]) | drug sensitivity score (Calu-3 [3]) | drug sensitivity score (HepG2 [4]) | drug sensitivity score (Vero E6 [5]) | cell viability (U2OS [6]; 1 nM) | cell viability (U2OS [6]; 10 nM) | cell viability (U2OS [6]; 100 nM) | cell viability (U2OS [6]; 1000 nM) | cell viability (U2OS [6]; 10000 nM) | cell viability (Caco-2 [7]; 1 nM) | cell viability (Caco-2 [7]; 10 nM) | cell viability (Caco-2 [7]; 100 nM) | cell viability (Caco-2 [7]; 1000 nM) | cell viability (Caco-2 [7]; 10000 nM) | cell viability (Calu-3 [8]; 1 nM) | cell viability (Calu-3 [8]; 10 nM) | cell viability (Calu-3 [8]; 100 nM) | cell viability (Calu-3 [8]; 1000 nM) | cell viability (Calu-3 [8]; 10000 nM) | cell viability (HepG2 [9]; 1 nM) | cell viability (HepG2 [9]; 10 nM) | cell viability (HepG2 [9]; 100 nM) | cell viability (HepG2 [9]; 1000 nM) | cell viability (HepG2 [9]; 10000 nM) | cell viability (Vero E6 [10]; 1 nM) | cell viability (Vero E6 [10]; 10 nM) | cell viability (Vero E6 [10]; 100 nM) | cell viability (Vero E6 [10]; 1000 nM) | cell viability (Vero E6 [10]; 10000 nM) | relative viability EC50 (U2OS [11]) | relative viability EC50 (Caco-2 [12]) | relative viability EC50 (Calu-3 [13]) | relative viability EC50 (HepG2 [14]) | relative viability EC50 (Vero E6 [15])
1 | Cc1occc(=O)c1[O-].Cc1occc(=O)c1[O-].[O]=[V+2] [bis(maltolato)oxovanadium(IV)] | 0 | 0 | 0.3 | 0 | 0 | 98.4% | 91.3% | 102% | 94.5% | 88.5% | 101% | 96% | 95.4% | 95.4% | 90.4% | 100% | 103% | 98% | 92.4% | 86.3% | 110% | 104% | 100% | 108% | 93% | 94% | 98.2% | 92.7% | 105% | 103% | > 10 µM | > 10 µM | > 10 µM | > 10 µM | > 10 µM
2 | S=C=Nc1ccc(N=C=S)cc1 [bitoscanate] | 0 | 0 | 0 | 0 | 0 | 94.2% | 101% | 96.3% | 100% | 105% | 91.8% | 96.6% | 101% | 106% | 103% | 104% | 103% | 94.6% | 95.3% | 102% | 97.9% | 82.6% | 103% | 91% | 105% | 90.7% | 93.6% | 93.5% | 92.2% | 104% | > 10 µM | > 10 µM | > 10 µM | > 10 µM | > 10 µM
3 | CC(C)(C)[C@]1(O)CCN2C[C@H]3c4ccccc4CCc4cccc(c43)[C@@H]2C1 [butaclamol] | 0 | 0 | 0 | 0 | 0 | 95.5% | 101% | 92% | 101% | 90.2% | 101% | 94.3% | 93.9% | 99.6% | 94.5% | 90% | 99.7% | 97.2% | 112% | 94.9% | 108% | 100% | 96.3% | 90% | 95.5% | 98.4% | 103% | 104% | 98% | 102% | > 10 µM | > 10 µM | > 10 µM | > 10 µM | > 10 µM
4 | CN1CC(O)C2=C/C(=N/NC(N)=O)C(=O)C=C21 (stereo not given) [carbazochrome] | 0 | 0 | 0 | 0 | 0 | 101% | 97.6% | 98.2% | 92.7% | 101% | 93.3% | 88.5% | 91.5% | 102% | 109% | 105% | 95.3% | 103% | 93.9% | 93.4% | 98.8% | 97% | 92.2% | 97.1% | 93.1% | 101% | 97% | 93.9% | 96.8% | 103% | > 10 µM | > 10 µM | > 10 µM | > 10 µM | > 10 µM
5 | CC(=O)OCC1=C(C(=O)O)N2C(=O)[C@@H](NC(=O)CCCC(N)C(=O)O)C2SC1 (stereo not given in full) [cephalosporin-c-zn] | 0 | 0 | 0 | 0 | 0 | 97.1% | 98.1% | 94.9% | 92.7% | 104% | 88.7% | 78% | 94.1% | 89.6% | 99.2% | 93.2% | 104% | 91.5% | 97.7% | 99.5% | 103% | 88.2% | 81.8% | 112% | 102% | 93.6% | 87.4% | 90.9% | 100% | 104% | > 10 µM | > 10 µM | > 10 µM | > 10 µM | > 10 µM
6 | C=CC1=C(C)C2=CC3=NC(=C(CC(=O)O)C4=NC(=C(C)C4=C(O)O)C=c4[nH]c(c(C)c4CC)=CC1=N2)C(CCC(=O)O)C3C (stereo not given) [chlorophyllin] | 0 | 0 | 0 | 0 | 0 | 97.7% | 96.1% | 100% | 96% | 103% | 102% | 104% | 96.6% | 91% | 91.4% | 111% | 89.7% | 93.2% | 101% | 116% | 97.3% | 106% | 115% | 112% | 106% | 100% | 99.9% | 95.7% | 96.9% | 92.6% | > 10 µM | > 10 µM | > 10 µM | > 10 µM | > 10 µM
7 | C[C@H](CCC(=O)O)[C@H]1CC[C@H]2[C@@H]3[C@H](O)C[C@@H]4C[C@H](O)CC[C@]4(C)[C@H]3C[C@H](O)[C@]12C [cholic-acid] | 0 | 0 | 0 | 0 | 0 | 97.3% | 100% | 93.5% | 102% | 96.5% | 93.3% | 92.3% | 95.3% | 100% | 93% | 87% | 91.1% | 88% | 99% | 96.9% | 112% | 97.5% | 96.3% | 94.2% | 102% | 102% | 102% | 100% | 100% | 99.4% | > 10 µM | > 10 µM | > 10 µM | > 10 µM | > 10 µM
